Laboratory results published in US7342137B1, “Cyclohexenone compounds from Antrodia camphorata and application thereof” (Golden Biotechnology Corporation, priority 2007, dated 2008).

Assays:
Assay type in all cases: cell-based
[1] = tested on: human prostate cancer cells, DU-145; assay: In vitro survival assay (MTT), prostate cancer cells DU-145; settings: 48 hours incubation
Description: The NCI anti-cancer drug screen model was also adopted to test the anti-cancer effect of the compound isolated from example 1 in the present invention. The isolated compound of 4-hydroxy-2,3-dimethoxy-6-methyl-5(3,7,11-trimethyl-dodeca-2,6,10-trienyl)-cyclohex-2-enone from example 1 was added into the culture media of human prostate cancer cells, LNCaP or DU-145, for tumor cell survival assay.
The human […] cells, LNCaP and DU-145, were separately cultivated in media containing fetal calf serum for 24 hours. The proliferated cells were washed once with PBS, then treated with 1× trypsin-EDTA and centrifuged at 1200 rpm for 5 minutes. The supernatant was discarded and the cell pellet was resuspended in 10 ml of fresh culture medium by gently shaking. The cells were placed in a 96-well plate. Ethanol extracts of Antrodia camphorata (the control group, total extracts of Antrodia camphorata without purification) or 4-hydroxy-2,3-dimethoxy-6-methyl-5(3,7,11-trimethyl-dodeca-2,6,10-trienyl)-cyclohex-2-enone (the experiment group) were added into each of the 96 wells at the following concentrations: 30, 10, 3, 1, 0.3, 0.1 and 0.03 μg/ml, respectively. The cells were incubated at 37° C. in a 5% CO2 incubator for 48 hours. […] The plates were read on an ELISA reader at wavelength of 570 nm to determine the survival rates.

[2] = tested on: human breast-cancer cells, MDA-MB-231; assay: In vitro Taxol add-on study (MTT), MDA-MB-231; settings: Homo sapiens, 0.0017 μg/ml Taxol + formula 2
Description: (§1) The experiment was also carried out according to NCI anti-cancer drug screen in vitro model. The human breast-cancer cells, MCF-7 and MDA-MB-231 were separately cultivated in media containing fetal calf serum for 24 hours. The proliferated cells were washed once with PBS, then treated with 1× trypsin-EDTA and centrifuged at 1200 rpm for 5 minutes. The supernatant was discarded and the cell pellet was resuspended in 10 ml of fresh culture medium by gently shaking. The cells were placed in a 96-well plate after 0.0017 μg/ml Taxol was added and treated for 72 hours. 4-hydroxy-2,3-dimethoxy-6-methyl-5(3,7,11-trimethyl-dodeca-2,6,10-trienyl)-cyclohex-2-enone obtained from example 1 were added respectively into each of the 96 wells at the following concentrations: 0 μg/ml (the control group); 30, 10, 3, 1, 0.3, 0.1 and 0.03 μg/ml (the experiment group). The cells were incubated at 37° C. in a 5% CO2 incubator for 48 hours. MTT was added in a concentration of 2.5 mg/ml into each well in dark and reacted for 4 hours, followed by the addition of 100 μl of lysis buffer to terminate the reaction. The plates were read on an ELISA reader at wavelength of 570 nm to determine the survival rates.

[3] = tested on: human prostate cancer cells, DU-145; assay: In vitro Taxol add-on study (MTT), prostate cancer cells DU-145; settings: Homo sapiens; DU-145 (0.0043 μg/ml Taxol + formula 2) as printed in Table 6
Description: The experiment was also carried out according to NCI anti-cancer drug screen in vitro model. The human prostate cancer cells, LNCaP and DU-145 were separately cultivated in media containing fetal calf serum for 24 hours. The proliferated cells were washed once with PBS, then treated with 1× trypsin-EDTA and centrifuged at 1200 rpm for 5 minutes. The supernatant was discarded and the cell pellet was resuspended in 10 ml of fresh culture medium by gently shaking. The LNCaP cells were treated with 0.0017 μg/ml of Taxol for 72 hours and DU-145 cells were treated with 0.0043 μg/ml of Taxol for 72 hours before placing in a 96-well plate. 4-hydroxy-2,3-dimethoxy-6-methyl-5(3,7,11-trimethyl-dodeca-2,6,10-trienyl)-cyclohex-2-enone obtained from example 1 were added respectively into each of the 96 wells at the following concentrations: 0 μg/ml (the control group); 30, 10, 3, 1, 0.3, 0.1 and 0.03 μg/ml (the experiment group). The cells were incubated at 37° C. in a 5% CO2 incubator for 48 hours. MTT was added in a concentration of 2.5 mg/ml into each well in dark and reacted for 4 hours, followed by the addition of 100 μl of lysis buffer to stop the reaction. The plates were read on an ELISA reader at wavelength of 570 nm to determine the survival rates.

[4] = tested on: human breast-cancer cells, MDA-MB-231; assay: In vitro survival assay (MTT), breast cancer cells MDA-MB-231; settings: 48 hours incubation
Description: The NCI anti-cancer drug screen model was adopted to test the anti-cancer effect of the compound from example 1 in the invention. The isolated compound of 4-hydroxy-2,3-dimethoxy-6-methyl-5(3,7,11-trimethyl-dodeca-2,6,10-trienyl)-cyclohex-2-enone from example 1 was added into the culture media of human breast-cancer cells, MCF-7 or MDA-MB-231, for tumor cell survival assay. This assay can be tested with 3-[4,5-dimethylthiazol-2-yl]2,5-diphenyltetrazolium bromide (MTT) assay, which is commonly used to determine cell proliferation, percent of viable cells, and cytotoxicity. MTT is a yellow dye, which can be absorbed by the living cells and be reduced to purplish blue formazan crystals by succinate tetrazolium reductase in mitochondria. Formazan formation can therefore be used to assess and determine the survival rate of cells.
The human breast-cancer cells, MCF-7 and MDA-MB-231 were separately cultivated in media containing fetal calf serum for 24 hours. The proliferated cells were washed once with PBS, then treated with 1× trypsin-EDTA and centrifuged at 1200 rpm for 5 minutes. The supernatant was discarded and the cell pellet was resuspended in 10 ml of fresh culture medium by gently shaking. The cells were placed in a 96-well plate. […] The plates were read on an ELISA reader at wavelength of 570 nm to determine the survival rates.

[5] = tested on: human breast-cancer cells, MCF-7; assay: In vitro Taxol add-on study (MTT), MCF-7; settings: Homo sapiens, MCF7, 0.0017 μg/ml Taxol + formula 2
Description: as §1

With `COC1=C(OC)C(O)C(C/C=C(\C)CC/C=C(\C)CCC=C(C)C)C(C)C1=O` (centres unmarked) [formula 2, 4-hydroxy-2,3-dimethoxy-6-methyl-5(3,7,11-trimethyl-dodeca-2,6,10-trienyl)-cyclohex-2-enone] the IC50 [1] was 1.81 µg/mL, the IC50 [2] was 0.011 µg/mL and the IC50 [3] was 0.515 µg/mL. The IC50 [4] was 1.03 µg/mL and the IC50 [5] was 0.009 µg/mL.
